Test results from US20240067625A1, “SMALL-MOLECULE MODULATORS OF THE ORPHAN NUCLEAR RECEPTOR TLX” (priority 2020, published 2024).

Columns and labels:
[1] = test system: neural stem and progenitor cells in the adult hippocampal neurogenic niche; assay: In vivo neurogenesis study: neural stem cell proliferation (CldU) after oral dosing; parameters: species or system C57BL/6J mice; settings: 3 mg/kg oral gavage daily for 5 days; CldU labelling; FIG. 11
Method: Small Molecule Oral Gavage Delivery and Chloro-Deoxyuridine (CldU) Injections. Small molecule candidates (3 mg/kg of animal) were delivered through oral gavage to animals (N=3-4) each day at the same time for 5 consecutive days. On the final day, animals received four consecutive IP injections of CldU (85 mg/kg dissolved in sterile saline) 2 hr apart.
Immunohistochemistry. Animals were anesthetized and perfused transcardially with 30 ml of phosphate buffered saline (PBS) followed by 30 ml of 4% (w/v) ice cold paraformaldehyde (PFA) in PBS. Brains were post fixed in 4% PFA solution overnight at 4° C. PFA was replaced with PBS and tissues were kept at 4° C. for further use. Free floating serial sagittal sections of 50 μm thickness were cut using Vibratome 1500 sectioning system and collected in 5 parallel sets each containing 14 sections 250 μm apart from each other. […] Following initial permeabilization and blocking at room temperature (RT) for 2 hrs, sections were incubated with primary antibodies overnight at 4° C. Sections were then washed three times and incubated with fluorochrome-conjugated secondary antibodies for 2 hrs at RT. Sections were washed three times with PBS and mounted on slides with DakoCytomation Fluorescent Mounting Medium (DakoCytomation, Carpinteria, CA) as anti-fading agent.
Sections were counterstained with DAPI (5 μg/mL, Sigma) at 1:1000.
Confocal microscopy and stereology. Quantification and characterization of proliferating cell types was performed according to previously described optical dissector methods. […] An observer blind to experimental groups counted immunoreactive cells that had the mentioned properties below in every fifth sagittal section throughout the dentate gyrus. Neural stem cells were identified according to their triangular Sox2^+ nuclei located in SGZ with a GFAP^+ radial process spanning through granule cell layer.
For quantification that required analysis of phenotypic morphology and/or overlapping markers, 20 μm thick sections were scanned with confocal microscope (Zeiss LSM 710). 3D reconstruction and orthogonal views were acquired via ZEN2012 SP1 software (Zeiss, Thornwood, NY). Cells in the uppermost focal plane were excluded from the quantification. Total counts from 14 sections were multiplied by 10 to get the total number of cells in two dentate gyri. The ratio of CldU^+ cells among a certain cell type was calculated by dividing the CldU^+ cells by the total number of cells in that cell type.
Statistics. Statistical analysis was performed using GraphPad Prism 8.0 (GraphPad RRID:SCR_002798). Experiments involving 2 groups were compared using un-paired Student t-test. […]

TLX LBD = TLX LBD (Homo sapiens (Human), UniProt Q9Y466); assay: ALPHA screen assay for TLX LBD and coactivator peptide recruitment; assay type: biochemical; settings: for Normalized fold increase at 200 μM: Table 2; for EC50 / Average ALPHA signal at 200 μM (std. dev.): Table 3; for Average ALPHA signal at 200 μM (std. dev.): mean (std. dev.)
Sequence of TLX LBD (Q9Y466 155-383): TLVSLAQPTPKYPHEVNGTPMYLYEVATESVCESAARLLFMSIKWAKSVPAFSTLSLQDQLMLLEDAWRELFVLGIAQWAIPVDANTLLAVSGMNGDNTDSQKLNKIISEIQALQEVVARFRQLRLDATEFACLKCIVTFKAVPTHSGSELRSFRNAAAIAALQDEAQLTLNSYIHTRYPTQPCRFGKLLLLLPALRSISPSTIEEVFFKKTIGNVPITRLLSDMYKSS
Method: Assays were performed according to the manufacturer's protocol (PerkinElmer, USA), with the following modifications: Ligands were tested for TLX-coactivator binding in 50 mM phosphate buffer, 150 mM NaCl, pH 7, 1 mM DTT and 100 μM CHAPS. Ligands were dissolved and diluted in DMSO as stocks and were prepared in assay buffer from the original stock in the 100% DMSO and added to the assay plate. Biotinylated SRC peptide and polyhistidine tagged TLX LBD were diluted in assay buffer, subsequently added to respective ALPHA beads, under low light. The plates were spun down, mixed with a shaker and incubated for 120 minutes and read on a TECAN Plate reader using the manufacturer's protocol.

human brain organoids = assay: TLX agonist activity in human brain organoids (RNA expression of NSC and immature neuron genes); assay type: cell-based; settings: 25 μM for 3 days, organoids at 68 days; compared to controls; FIG. 13
Excerpt: Human induced pluripotent cells (iPSCs) were used to generate brain organoids using a modified Pasca protocol as previously described. See, Manganas, et al. (Sci Rep […], 11: 5546) and Pasca, et al. (Nat. Methods 2015, 12: 671-678), which are incorporated herein by reference. Within 2 months, the protocol produces organoids with a variety of cell types that mimic early human brain (neural stem cells, progenitors, different types of neurons at different maturation stage, astrocytes, oligodendrocytes). About 300 organoids can be generated per batch and thus the model provides for testing of different experimental paradigms in the same batch. Organoids were treated at 68-days with 25 μM of reference compound 29, test compounds 95 and […]), or vehicle (0.03N HCl) for 3 days, after which they were processed to examine the expression of NSC genes (PAX6, BLBP) and immature neuron genes (PROM1, DCX).

Row | SMILES | cell proliferation of neural stem and progenitor cells in the adult hippocampal neurogenic niche [1] | Normalized fold increase at 200 μM (TLX LBD) [X] | EC50 (TLX LBD) [nM] | Average ALPHA signal at 200 μM (std. dev.) (TLX LBD) | expression of NSC genes (PAX6, BLBP) and immature neuron genes (PROM1, DCX) (human brain organoids)
1 | CC(C)CCNc1ncccc1C(=O)N1CCN(Cc2ccccc2)[C@H](C)C1 [Compound 1, (R)-(4-benzyl-3-methylpiperazin-1-yl)(2-(isopentylamino)pyridin-3-yl)methanone] | increase in cell proliferation | 1.97 | 0.0853 | 1.97 (0.07) | –
2 | CC(C)CCNc1ncccc1C(=O)N1CCN(Cc2ccccc2)C[C@@H]1C [Compound 4, (S)-(4-benzyl-2-methylpiperazin-1-yl)(2-(isopentylamino)pyridin-3-yl)methanone] | increase in cell proliferation | 2.29 | 0.0298 | 2.29 (0.09) | –
3 | CC(C)CCNc1ncccc1C(=O)N1CCN(Cc2ccccc2)[C@@H](C)C1 [Compound 2, (S)-(4-benzyl-3-methylpiperazin-1-yl)(2-(isopentylamino)pyridin-3-yl)methanone] | increase in cell proliferation | 2.45 | 0.0637 | 2.45 (0.05) | –
4 | CC(C)CCNc1ncccc1C(=O)N1CCN(Cc2ccccc2)C[C@H]1C [Compound 3, (R)-(4-benzyl-2-methylpiperazin-1-yl)(2-(isopentylamino)pyridin-3-yl)methanone] | increase in cell proliferation | 2.49 | 0.0281 | 2.49 (0.12) | –
5 | CC(C)CCNc1ncccc1C(=O)N1CCN(Cc2ccccc2)C[C@H]1Cc1ccccc1 [Compound 95] | – | – | – | 2.37 (0.19) | substantially increased the expression levels of tested genes
6 | CC(C)CCNc1ncccc1C(=O)N1CCN(Cc2ccccc2)CC1 [Compound 29, (4-benzylpiperazin-1-yl)(2-(isopentylamino)pyridin-3-yl)methanone, reference compound] | – | – | 0.0361 | 2.52 (0.09) | did not lead to a substantial difference in gene expression
7 | CC(C)CCNc1ncccc1C(=O)N1CCN(Cc2ccccc2)C[C@@H]1Cc1ccccc1 [Compound 96] | – | – | 0.00315 | 2.41 (0.07) | substantially increased the expression levels of tested genes
8 | Cc1cccc(CN2CCN(C(=O)c3cccnc3NCCC(C)C)[C@H](C)C2)c1 [Compound 44] | – | – | 0.0124 | 3.28 (0.09) | –
9 | CC(C)CCNc1ncccc1C(=O)N1CCN(Cc2ccc3cnccc3c2)C[C@@H]1C [Compound 40] | – | – | 0.0529 | 2.48 (0.02) | –
10 | CC(C)CCNc1ncccc1C(=O)N1C[C@@H](C)N(Cc2ccccc2)C[C@H]1CC(=O)O [Compound 83] | – | – | – | 1.02 (0.03) | –
11 | CC(C)CCNc1ncccc1C(=O)N1CCN(Cc2c[nH]c3ccccc23)C[C@@H]1C [Compound 42] | – | – | – | 0.96 (0.05) | –
